These results are taken from paper PMC10837484 (Clinical and Translational Science, 2024).

Molecules are shown by their SMILES.

For series [1], the target named is T1, LTA4H (Homo sapiens, UniProt P09960).
T1 sequence (P09960 1-611): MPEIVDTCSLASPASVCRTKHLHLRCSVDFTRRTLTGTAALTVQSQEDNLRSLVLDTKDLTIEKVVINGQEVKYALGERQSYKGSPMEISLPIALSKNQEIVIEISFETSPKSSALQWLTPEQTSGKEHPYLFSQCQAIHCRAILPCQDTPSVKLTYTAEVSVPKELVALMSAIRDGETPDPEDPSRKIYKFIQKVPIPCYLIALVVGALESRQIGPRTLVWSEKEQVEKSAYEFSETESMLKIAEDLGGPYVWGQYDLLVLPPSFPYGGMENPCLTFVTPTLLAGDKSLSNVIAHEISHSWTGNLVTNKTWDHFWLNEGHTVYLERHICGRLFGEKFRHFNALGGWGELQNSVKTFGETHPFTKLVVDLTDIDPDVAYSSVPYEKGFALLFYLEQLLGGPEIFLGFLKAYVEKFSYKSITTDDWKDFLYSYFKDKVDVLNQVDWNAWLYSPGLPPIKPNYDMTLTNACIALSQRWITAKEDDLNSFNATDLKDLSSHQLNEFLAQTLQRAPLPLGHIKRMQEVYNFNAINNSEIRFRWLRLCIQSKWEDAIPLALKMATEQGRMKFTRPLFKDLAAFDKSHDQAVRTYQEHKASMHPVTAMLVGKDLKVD
The settings on record: cited from earlier work.

The target of series [2] is T1, LTA4H. The settings on record: patients with asthma; cited from earlier work.
Series [3] has as its system LTA4H. The settings on record: cited from earlier work.
The conditions of series [4]: cited from earlier work.
A short description of series [5]: Dog PK/PD study: LYS006 in blood and plasma. It counts as in vivo, male beagle dogs.
The nature of series [6]: First-in-human study: LYS006 concentrations in plasma and blood. Format: in vivo. The settings on record: for concentration at 24 h: blood level, 24 h timepoint.
Series [7] is described as follows: First-in-human study: safety and tolerability. It counts as in vivo.
For series [8] the following is noted: cited from earlier work. This is another data set of the same source.
A short description of the next series: in vivo. The settings on record: male, Wistar, rat, 3 mg/kg.
Where [9] appears, read: 0.5 mg/kg p.o. q.d., after fifth dose.
Setting [10] is: SAD part, LYS006 treated participants.

On to `CC(=O)NC1C[C@H]2CC[C@@H](C1)N2Cc1ccc(Oc2nc3ncccc3s2)cc1` (stereo partly shown) [JNJ‐40929837], for which, on LTA4H [1] (over a 24 h period at doses of 100 mg), the “reduction of LTB4 levels” value is “greater than 95%”. The “reduction in sputum LTB4” value at LTA4H [2] is 92%. The “potency in in vitro cellular assays” value in the series with LTA4H [3] is “highly potent”.

With `O=C(O)CCCN1CCC[C@H]1COc1ccc(Oc2ccc(Cl)cc2)cc1` [DG‐051], at LTA4H [1] (after 7 days of once daily treatment), the “LTB4 reduction in ex vivo stimulated blood” value is reported as “up to 70%”. Also, the “in vitro potency relative to other clinical LTA4H inhibitors” value with LTA4H [3] is “lowest potency”.

Consider `CC(c1cc2ccccc2s1)N(O)C(N)=O` (stereo not shown) [zileuton], for which, in series [4], the “effect on liver transaminases” value is recorded as “elevates liver transaminases”.

For the compound `O=C(O)c1ccc(CN2C[C@@H]3C[C@H]2CN3Cc2ccc(Oc3ccc(-c4ncco4)cc3)cc2)cc1` [acebilustat], the “maximum PD effect, reduction of LTB4 at peak in ex vivo stimulated blood” value at LTA4H [1] (highest tested dose 200 mg q.d.) is 89%.

In [5] (setting [9]), `N[C@@H](CC(=O)O)Cn1nnc(-c2ccc(Oc3ncc(Cl)cc3F)cc2)n1` [LYS006] came in with a peak blood concentration of 55 ng/mL and a peak plasma concentration of 5.5 ng/mL. In [5] (3 mg/kg p.o., first dose, 1 h), this compound came in with a peak blood level of 71 ng/mL and a peak plasma level of 36 ng/mL. The concentration at 24 h in series [5] (male, beagle, in vivo, po, 0.5 mg/kg, plasma Ctrough, 0.5 mg/kg p.o., first dose) is ~3 ng/mL. Moreover, in [6] (MAD, 15 mg q.d.), the trough blood level is on record as ~ 35 ng/mL and the trough plasma level is ~ 2 ng/mL. In addition, in [6] (MAD, after last dose on day 12), the “blood exposure after end-of-treatment” value lay within 30 to 40 ng/mL and the “plasma level after end-of-treatment” value lay within 1 to 2 ng/mL. In series [6] (both, human, in vivo, 5 mg, SAD), this compound came in with a concentration at 24 h of 29.4 ng/mL. This compound had a concentration at 24 h in series [6] (both, human, in vivo, 70 mg, SAD) of 37.1 ng/mL. In series [6] (both, human, in vivo, blood concentration, SAD, 12 h after administration), this compound had a concentration at 12 h of 30 to 50 ng/mL. Also, in [7] (FE cohorts, 10 mg, N = 12), the “AE severity: Mild” value is recorded as 8 (66.6) n (%), the “AE severity: Moderate” value was 0 (0) n (%), the “AE severity: Severe” value is 0 (0) n (%) and the “AEs leading to discontinuation” value was 0 (0) n (%). Further, in [7] (FE cohorts, 10 mg, N = 12), the “Abdominal discomfort or pain” value is recorded as 2 (16.7) n (%), the Amylase increase is listed as 0 (0) n (%), the Back pain is reported as 0 (0) n (%) and the “Blood CPK elevation” value is listed as 0 (0) n (%). In addition, in series [7] (FE cohorts, 10 mg, N = 12), the Breast pain is given as 0 (0) n (%), the Deaths is 0 (0) n (%), the Diarrhea was 0 (0) n (%) and the Dizziness was 0 (0) n (%). Also, in series [7] (FE cohorts, 10 mg, N = 12), the Dry skin is 2 (16.7) n (%), the Feeling cold is on record as 2 (16.7) n (%), the Headache was 1 (8.3) n (%) and the Lipase elevation is given as 0 (0) n (%). In series [7] (FE cohorts, 10 mg, N = 12), the Nausea was 0 (0) n (%), the Pruritus is reported as 0 (0) n (%), the SAEs is 0 (0) n (%) and the “Study drug-related AEs” value is 0 (0) n (%). Also, the Viral respiratory infection in [7] (FE cohorts, 10 mg, N = 12) is recorded as 3 (25) n (%). For the same compound, in series [7] (FE part, 10 mg), the Feeling cold turned out to be 16.7%, the abdominal pain is recorded as 16.7%, the dry skin is reported as 16.7% and the “viral upper respiratory tract infection” value is recorded as 25.0%. For the same compound, in series [7] (FE part, 10 mg fasted or fed, 12 patients), the “participants with at least one AE” value is given as 66.7%. Further, in [7] (MAD cohorts, all doses, N = 30), the “AE severity: Mild” value is on record as 22 (73.3) n (%), the “AE severity: Moderate” value was 4 (13.3) n (%), the “AE severity: Severe” value is listed as 4 (13.3) n (%) and the “AEs leading to discontinuation” value is reported as 0 (0) n (%). In addition, in [7] (MAD cohorts, all doses, N = 30), the “Abdominal discomfort or pain” value is recorded as 2 (6.7) n (%), the Amylase increase was 2 (6.7) n (%), the Back pain was 2 (6.7) n (%) and the “Blood CPK elevation” value is recorded as 5 (16.7) n (%). In series [7] (MAD cohorts, all doses, N = 30), the Breast pain was 0 (0) n (%), the Deaths is 0 (0) n (%), the Diarrhea was 1 (3.3) n (%) and the Dizziness was 2 (6.7) n (%). Moreover, in series [7] (MAD cohorts, all doses, N = 30), the Dry skin is 0 (0) n (%), the Feeling cold was 0 (0) n (%), the Headache is 8 (26.7) n (%) and the Lipase elevation is recorded as 3 (10) n (%). For the same compound, in series [7] (MAD cohorts, all doses, N = 30), the Nausea was 2 (6.7) n (%), the Pruritus was 0 (0) n (%), the SAEs is 0 (0) n (%) and the “Study drug-related AEs” value is reported as 5 (16.7) n (%). Also, in series [7] (MAD cohorts, all doses, N = 30), the “Subjects with at least one AE” value is on record as 23 (76.7) n (%) and the Viral respiratory infection is reported as 2 (6.7) n (%). Further, in series [7] (MAD part, 30 LYS006-treated participants), the “participants with AEs” value was found to be 76.7%. The “AEs of severe intensity (grade 3)” value in series [7] (MAD part, LYS006-treated participants) came to 13.3%. Besides, in series [7] (MAD part, LYS006 group), the Headache turned out to be 26.7%, the Lipase elevation was determined as 10% and the “creatine phosphokinase (CPK) elevation” value is recorded as 16.7%. Moreover, in series [7] (MAD, LYS006 group, transient), the “number of AEs of severe intensity related to CPK elevations” value is listed as “two” and the “number of lipase elevations of severe intensity (grade 3)” value was “Two”. In series [7] (SAD cohorts, all doses, N = 51), the “AE severity: Mild” value is 18 (35.3) n (%), the “AE severity: Moderate” value is listed as 2 (3.9) n (%), the “AE severity: Severe” value is recorded as 1 (2) n (%) and the “AEs leading to discontinuation” value was 0 (0) n (%). Moreover, in series [7] (SAD cohorts, all doses, N = 51), the “Abdominal discomfort or pain” value was 4 (7.8) n (%), the Amylase increase is reported as 0 (0) n (%), the Back pain is 1 (2) n (%) and the “Blood CPK elevation” value is recorded as 0 (0) n (%). Also, in [7] (SAD cohorts, all doses, N = 51), the Breast pain is listed as 0 (0) n (%), the Deaths is reported as 0 (0) n (%), the Diarrhea is on record as 2 (3.9) n (%) and the Dizziness was 1 (2) n (%). For the same compound, in [7] (SAD cohorts, all doses, N = 51), the Dry skin is reported as 0 (0) n (%), the Feeling cold was 0 (0) n (%), the Headache is listed as 3 (5.9) n (%) and the Lipase elevation is 2 (3.9) n (%). Also, in series [7] (SAD cohorts, all doses, N = 51), the Nausea is recorded as 0 (0) n (%), the Pruritus was 2 (3.9) n (%), the SAEs is reported as 0 (0) n (%) and the “Study drug-related AEs” value is listed as 4 (7.8) n (%). Also, in [7] (SAD cohorts, all doses, N = 51), the “Subjects with at least one AE” value is reported as 19 (37.3) n (%) and the Viral respiratory infection is 0 (0) n (%). Also, in series [7] (SAD part, 51 LYS006 treated participants), the “participants with AEs” value was determined as 37.3%. For the same compound, in series [7] (setting [10]), the “Abdominal discomfort or pain” value was 7.8%, the Diarrhea was 3.9% and the Headache was determined as 5.9%. The tolerability result in series [7] (SAD, FE and MAD parts, all study participants) is “well‐tolerated”. In addition, the dose-limiting toxicity entry in [7] (healthy participants, up to 80 mg b.i.d.) is recorded as “No dose‐limiting toxicity”. For the same compound, the “lipase increase, only AE of severe intensity (grade 3) in SAD” value in [7] (one participant, single dose 5 mg, day 8 after dosing, no clinical sign) is ≥ 2 × ULN. Besides, in [8] (clinical PK), the “time to maximum plasma concentration (Tmax)” value is 1 to 2 h. Also, the “parent compound excreted into the urine” value in series [8] (human) is listed as 90%. For the same compound, the concentration at 4 h in “in vivo” was > 1000 ng/mL.
